Results reported in PMC3145970, “Specific CLK Inhibitors from a Novel Chemotype for Regulation of Alternative Splicing” (Chemistry & Biology, 2011).
Where two headings read alike, the source gives them in different places.

Assays:
Assay in all cases: Thermal stability shift assay
Assay type in all cases: binding
[1] = molecular target: T1, eEF2K (Homo sapiens, UniProt O00418); details: read-out: Tm shift eEF2K
T1 construct: purchased in-house (SGC Oxford thermal shift panel)
T1 sequence (O00418 1-725): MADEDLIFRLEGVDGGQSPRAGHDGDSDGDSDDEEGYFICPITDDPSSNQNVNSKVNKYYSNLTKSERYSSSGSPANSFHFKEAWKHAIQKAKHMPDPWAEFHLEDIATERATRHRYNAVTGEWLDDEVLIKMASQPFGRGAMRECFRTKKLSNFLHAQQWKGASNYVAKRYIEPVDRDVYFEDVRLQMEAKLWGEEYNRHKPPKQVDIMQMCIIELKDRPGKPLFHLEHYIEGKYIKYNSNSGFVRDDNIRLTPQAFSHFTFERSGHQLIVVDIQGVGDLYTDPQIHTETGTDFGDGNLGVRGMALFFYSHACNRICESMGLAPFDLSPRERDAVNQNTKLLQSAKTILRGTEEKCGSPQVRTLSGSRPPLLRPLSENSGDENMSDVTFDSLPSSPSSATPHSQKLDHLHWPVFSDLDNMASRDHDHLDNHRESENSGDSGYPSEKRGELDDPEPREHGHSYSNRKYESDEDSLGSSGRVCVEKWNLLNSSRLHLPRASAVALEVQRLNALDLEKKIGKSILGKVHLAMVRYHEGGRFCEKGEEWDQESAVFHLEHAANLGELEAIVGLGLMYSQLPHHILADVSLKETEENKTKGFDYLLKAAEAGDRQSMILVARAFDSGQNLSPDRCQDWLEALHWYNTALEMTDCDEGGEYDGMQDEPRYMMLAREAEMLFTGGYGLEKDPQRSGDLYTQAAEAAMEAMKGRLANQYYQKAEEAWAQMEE
In short: (§1)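 Inhibitor (10 μM) was mixed with kinase (2 μM) in HEPES-buffered saline (10 mM, pH 7.5; 500 mM NaCl) plus SyproOrange, then the sample was heated stepwise in a real-time PCR machine to record denaturation.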

[2] = molecular target: T2, NEK7 (Homo sapiens, UniProt Q8TDX7); details: read-out: Tm shift NEK7
T2 construct: purchased in-house (SGC Oxford thermal shift panel)
In short: as §1

[3] = molecular target: ACTR2 (Homo sapiens, UniProt P27037); details: read-out: Tm shift ACTR2
In short: as §1

[4] = molecular target: T3, ALK2 (Homo sapiens, UniProt Q04771); details: read-out: Tm shift ALK2
T3 sequence (Q04771 21-509): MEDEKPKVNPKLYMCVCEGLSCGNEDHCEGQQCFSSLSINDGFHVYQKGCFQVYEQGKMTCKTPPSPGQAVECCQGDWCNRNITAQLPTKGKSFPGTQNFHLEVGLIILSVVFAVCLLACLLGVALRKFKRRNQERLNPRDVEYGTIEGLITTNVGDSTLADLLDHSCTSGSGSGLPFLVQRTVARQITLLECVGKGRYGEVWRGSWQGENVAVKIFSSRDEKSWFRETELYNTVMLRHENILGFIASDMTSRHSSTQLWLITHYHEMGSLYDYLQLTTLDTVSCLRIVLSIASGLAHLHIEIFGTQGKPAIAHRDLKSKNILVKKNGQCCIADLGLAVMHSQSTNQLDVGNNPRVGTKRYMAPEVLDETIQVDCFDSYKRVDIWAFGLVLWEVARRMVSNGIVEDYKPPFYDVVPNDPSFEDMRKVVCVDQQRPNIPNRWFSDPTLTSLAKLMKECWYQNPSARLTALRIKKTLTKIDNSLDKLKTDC
In short: as §1

[5] = molecular target: ZC2/TNIK (Homo sapiens, UniProt Q9UKE5); details: read-out: Tm shift ZC2/TNIK
In short: as §1

[6] = molecular target: T4, MST3 (Homo sapiens, UniProt Q9Y6E0); details: read-out: Tm shift MST3
T4 construct: purchased in-house (SGC Oxford thermal shift panel)
In short: as §1

[7] = molecular target: T5, RHOK (Homo sapiens, UniProt Q15835); details: read-out: Tm shift RHOK
T5 sequence (Q15835 1-563): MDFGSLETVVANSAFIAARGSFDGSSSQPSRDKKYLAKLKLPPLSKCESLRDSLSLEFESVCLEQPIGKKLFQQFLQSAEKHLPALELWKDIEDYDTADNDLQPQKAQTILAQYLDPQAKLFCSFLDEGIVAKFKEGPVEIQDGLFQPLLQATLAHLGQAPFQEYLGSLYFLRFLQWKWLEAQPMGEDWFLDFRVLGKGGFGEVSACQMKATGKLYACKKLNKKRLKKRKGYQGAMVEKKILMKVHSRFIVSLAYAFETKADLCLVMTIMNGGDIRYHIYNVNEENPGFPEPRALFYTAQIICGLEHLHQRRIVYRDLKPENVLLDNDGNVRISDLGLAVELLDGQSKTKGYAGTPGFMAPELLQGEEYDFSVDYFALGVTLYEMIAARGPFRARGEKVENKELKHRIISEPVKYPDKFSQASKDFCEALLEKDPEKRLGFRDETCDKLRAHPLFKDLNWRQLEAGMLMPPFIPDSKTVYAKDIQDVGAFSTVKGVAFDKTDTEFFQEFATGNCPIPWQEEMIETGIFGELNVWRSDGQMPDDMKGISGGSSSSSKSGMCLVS
In short: as §1

T4 sequence (Q9Y6E0 whole entry): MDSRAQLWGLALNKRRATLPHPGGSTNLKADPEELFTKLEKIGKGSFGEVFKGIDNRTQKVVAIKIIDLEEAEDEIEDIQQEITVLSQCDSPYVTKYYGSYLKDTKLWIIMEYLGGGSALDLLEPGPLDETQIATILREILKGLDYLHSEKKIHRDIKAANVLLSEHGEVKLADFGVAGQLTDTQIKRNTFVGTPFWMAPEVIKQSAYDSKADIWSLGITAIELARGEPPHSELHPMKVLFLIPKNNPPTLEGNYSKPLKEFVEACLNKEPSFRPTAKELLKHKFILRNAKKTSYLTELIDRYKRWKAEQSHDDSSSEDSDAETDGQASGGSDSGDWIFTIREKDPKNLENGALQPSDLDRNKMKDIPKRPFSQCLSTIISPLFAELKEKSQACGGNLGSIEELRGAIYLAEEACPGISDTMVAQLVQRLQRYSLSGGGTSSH
ZC2/TNIK, sequence (Q9UKE5 whole entry): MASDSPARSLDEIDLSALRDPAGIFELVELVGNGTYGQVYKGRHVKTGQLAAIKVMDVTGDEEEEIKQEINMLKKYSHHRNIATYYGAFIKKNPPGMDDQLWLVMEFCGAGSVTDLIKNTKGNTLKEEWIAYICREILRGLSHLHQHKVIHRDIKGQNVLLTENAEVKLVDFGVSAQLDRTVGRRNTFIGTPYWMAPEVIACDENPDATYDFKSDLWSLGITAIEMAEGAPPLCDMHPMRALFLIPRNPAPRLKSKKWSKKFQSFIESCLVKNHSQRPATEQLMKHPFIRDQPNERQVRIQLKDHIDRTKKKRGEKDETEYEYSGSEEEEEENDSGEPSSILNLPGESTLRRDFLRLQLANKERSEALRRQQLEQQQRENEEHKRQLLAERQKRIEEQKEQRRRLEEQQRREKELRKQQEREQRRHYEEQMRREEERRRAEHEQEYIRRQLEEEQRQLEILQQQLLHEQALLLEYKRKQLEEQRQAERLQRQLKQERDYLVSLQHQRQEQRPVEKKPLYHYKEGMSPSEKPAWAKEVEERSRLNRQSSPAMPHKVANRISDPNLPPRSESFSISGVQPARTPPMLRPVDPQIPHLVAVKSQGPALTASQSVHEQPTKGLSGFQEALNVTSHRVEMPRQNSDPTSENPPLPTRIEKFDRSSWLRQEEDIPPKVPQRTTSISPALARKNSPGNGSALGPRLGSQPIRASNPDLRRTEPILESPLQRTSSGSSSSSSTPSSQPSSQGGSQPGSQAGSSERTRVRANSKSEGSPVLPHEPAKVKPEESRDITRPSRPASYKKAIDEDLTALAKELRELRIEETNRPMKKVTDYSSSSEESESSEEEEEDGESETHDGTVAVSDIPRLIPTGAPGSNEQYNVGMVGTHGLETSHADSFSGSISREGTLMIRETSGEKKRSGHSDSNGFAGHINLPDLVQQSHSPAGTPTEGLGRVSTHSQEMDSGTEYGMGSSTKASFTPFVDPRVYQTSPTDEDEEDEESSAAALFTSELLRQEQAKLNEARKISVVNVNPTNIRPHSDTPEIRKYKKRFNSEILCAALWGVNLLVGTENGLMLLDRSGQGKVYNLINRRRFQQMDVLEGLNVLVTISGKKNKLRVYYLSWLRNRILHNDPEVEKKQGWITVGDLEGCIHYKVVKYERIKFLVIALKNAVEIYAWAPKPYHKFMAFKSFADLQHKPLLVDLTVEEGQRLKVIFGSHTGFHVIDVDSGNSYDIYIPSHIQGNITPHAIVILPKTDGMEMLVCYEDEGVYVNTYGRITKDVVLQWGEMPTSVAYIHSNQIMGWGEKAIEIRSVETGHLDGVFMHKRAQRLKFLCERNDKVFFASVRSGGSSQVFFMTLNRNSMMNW
ACTR2, sequence (P27037 20-513): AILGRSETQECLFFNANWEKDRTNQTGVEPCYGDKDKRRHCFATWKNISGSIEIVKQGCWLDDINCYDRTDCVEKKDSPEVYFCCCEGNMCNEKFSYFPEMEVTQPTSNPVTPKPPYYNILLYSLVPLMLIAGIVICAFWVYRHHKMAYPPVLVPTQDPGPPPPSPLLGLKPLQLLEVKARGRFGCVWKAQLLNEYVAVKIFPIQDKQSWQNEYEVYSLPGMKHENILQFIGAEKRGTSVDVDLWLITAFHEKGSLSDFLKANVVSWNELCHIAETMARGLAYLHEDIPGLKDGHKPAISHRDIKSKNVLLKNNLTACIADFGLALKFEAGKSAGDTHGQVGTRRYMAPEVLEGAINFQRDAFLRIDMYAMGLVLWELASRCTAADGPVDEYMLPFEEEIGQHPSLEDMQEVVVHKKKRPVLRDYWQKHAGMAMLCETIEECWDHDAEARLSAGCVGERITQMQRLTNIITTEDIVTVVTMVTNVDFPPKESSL
T2 sequence (Q8TDX7 whole entry): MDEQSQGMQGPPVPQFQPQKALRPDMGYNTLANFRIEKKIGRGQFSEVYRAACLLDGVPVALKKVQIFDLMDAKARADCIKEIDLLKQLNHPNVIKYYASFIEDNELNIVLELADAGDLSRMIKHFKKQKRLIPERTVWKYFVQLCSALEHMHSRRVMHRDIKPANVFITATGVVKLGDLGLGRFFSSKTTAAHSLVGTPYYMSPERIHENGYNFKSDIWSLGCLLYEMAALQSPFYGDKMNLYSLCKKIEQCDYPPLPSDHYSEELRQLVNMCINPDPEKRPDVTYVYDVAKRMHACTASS

Structure (SMILES) | ΔTm at 10 µM [1] [°C] | ΔTm at 10 µM [2] [°C] | ΔTm at 10 µM [3] [°C] | ΔTm at 10 µM [4] [°C] | ΔTm at 10 µM [5] [°C] | ΔTm at 10 µM [6] [°C] | ΔTm at 10 µM [7] [°C] | ΔTm at 10 µM ([1]; inhibitor 10 μM) [°C] | ΔTm at 10 µM ([2]; inhibitor 10 μM) [°C] | ΔTm at 10 µM ([3]; inhibitor 10 μM) [°C] | ΔTm at 10 µM ([4]; inhibitor 10 μM) [°C] | ΔTm at 10 µM ([5]; inhibitor 10 μM) [°C] | ΔTm at 10 µM ([6]; inhibitor 10 μM) [°C] | ΔTm at 10 µM ([7]; inhibitor 10 μM) [°C]
CCOC(=O)c1c(C(C#N)=CN)c2ccc(Cl)c(Cl)c2n1C (mixture of isomers) [KH-CB20, (E/Z)-Ethyl 3-(2-Amino-1-Cyanovinyl)-6,7-Dichloro-1-Methyl-1H-Indole-2-Carboxylate] | -0.1 | 0.1 | 0.4 | 0.8 | -0.1 | -0.1 | 0.3 |  |  |  |  |  |  | 
CCOC(=O)c1c(C(C#N)=CN(C)C)c2ccc(Cl)c(Cl)c2n1C (mixture of isomers) [compound 2, (E/Z)-Ethyl 6,7-Dichloro-3-[1-Cyano-2-(Dimethylamino)Vinyl]-1-Methyl-1H-Indole-2-Carboxylate] |  |  |  |  |  |  |  | -0.4 | -0.7 | 0.6 | -0.5 | 0.1 | -1.1 | 0.9
NC1=NC(=O)/C(=C2\CCNC(=O)c3[nH]c(Br)cc32)N1 [Hymenialdisine, hymenialdisine, reference compound] |  |  |  |  | 3.4 |  |  | -0.1 | 0.6 | 0.7 | 2.1 |  | 1 | 0.7
CCOC(=O)c1c(/C(C#N)=C\N)c2ccc(Cl)c(Cl)c2n1C [KH-CB19, (E)-Ethyl 3-(2-Amino-1-Cyanovinyl)-6,7-Dichloro-1-Methyl-1H-Indole-2-Carboxylate] | -0.1 | 0 | 0.2 | 0.5 | 0.2 | 0.2 | 0.5 |  |  |  |  |  |  | 
Cn1c2c(Cl)c(Cl)ccc2c2c(C#N)c[nH]c(=O)c21 [compound 3, 7,8-Dichloro-9-Methyl-1-Oxo-2,9-Dihydro-1H-Pyrido[3,4-b]Indole-4-Carbonitrile] |  |  |  |  |  |  |  | 0.3 | 0.6 | 0.8 | 0.5 | 0 | 0.1 | 0.9
